Data as given in PubChem BioAssay (NCI).
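Tested at 5 concentrations; 48 h exposure; 96-well plates; endpoints linearly interpolated, else capped at highest concentration. TGI is the concentration that stops growth completely.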

Legend:
Test in all cases: growth of human tumour cells (NCI), 48 h
786-0 renal = test system: 786-0 renal
A498 renal = test system: A498 renal
A549 NSCLC = test system: A549 NSCLC
ACHN renal = test system: ACHN renal
BT-549 breast = test system: BT-549 breast
CAKI-1 renal = test system: CAKI-1 renal
CCRF-CEM leukemia = test system: CCRF-CEM leukemia
COLO 205 colon = test system: COLO 205 colon
DMS 114 small cell lung = test system: DMS 114 small cell lung
DMS 273 small cell lung = test system: DMS 273 small cell lung
DU-145 prostate = test system: DU-145 prostate
EKVX NSCLC = test system: EKVX NSCLC
HCC-2998 colon = test system: HCC-2998 colon
HCT-116 colon = test system: HCT-116 colon
HCT-15 colon = test system: HCT-15 colon
HL-60(TB) leukemia = test system: HL-60(TB) leukemia
HOP-18 NSCLC = test system: HOP-18 NSCLC
HOP-62 NSCLC = test system: HOP-62 NSCLC
HOP-92 NSCLC = test system: HOP-92 NSCLC
HS 578T breast = test system: HS 578T breast
HT29 colon = test system: HT29 colon
IGROV1 ovarian = test system: IGROV1 ovarian
K-562 leukemia = test system: K-562 leukemia
KM12 colon = test system: KM12 colon
KM20L2 colon = test system: KM20L2 colon
LOX IMVI melanoma = test system: LOX IMVI melanoma
M14 melanoma = test system: M14 melanoma
M19-MEL melanoma = test system: M19-MEL melanoma
MALME-3M melanoma = test system: MALME-3M melanoma
MCF7 breast = test system: MCF7 breast
MDA-MB-435 = test system: MDA-MB-435
MDA-N = test system: MDA-N
MOLT-4 leukemia = test system: MOLT-4 leukemia
NCI-H226 lung = test system: NCI-H226 lung
NCI-H23 lung = test system: NCI-H23 lung
NCI-H460 lung = test system: NCI-H460 lung
NCI-H522 lung = test system: NCI-H522 lung
NCI/ADR-RES ovarian = test system: NCI/ADR-RES ovarian
OVCAR-3 ovarian = test system: OVCAR-3 ovarian
OVCAR-4 ovarian = test system: OVCAR-4 ovarian
OVCAR-5 ovarian = test system: OVCAR-5 ovarian
OVCAR-8 ovarian = test system: OVCAR-8 ovarian
PC-3 prostate = test system: PC-3 prostate
RPMI-8226 leukemia = test system: RPMI-8226 leukemia
RXF 393 renal = test system: RXF 393 renal
SF-268 CNS = test system: SF-268 CNS
SF-295 CNS = test system: SF-295 CNS
SF-539 CNS = test system: SF-539 CNS
SK-MEL-2 melanoma = test system: SK-MEL-2 melanoma
SK-MEL-28 melanoma = test system: SK-MEL-28 melanoma
SK-MEL-5 melanoma = test system: SK-MEL-5 melanoma
SK-OV-3 ovarian = test system: SK-OV-3 ovarian
SN12C renal = test system: SN12C renal
SNB-19 CNS = test system: SNB-19 CNS
SNB-75 CNS = test system: SNB-75 CNS
SNB-78 CNS = test system: SNB-78 CNS
SR leukemia = test system: SR leukemia
SW-620 colon = test system: SW-620 colon
T-47D breast = test system: T-47D breast
TK-10 renal = test system: TK-10 renal
U251 CNS = test system: U251 CNS
UACC-257 melanoma = test system: UACC-257 melanoma
UACC-62 melanoma = test system: UACC-62 melanoma
UO-31 renal = test system: UO-31 renal
DLD-1 colon = test system: DLD-1 colon
LXFL 529 NSCLC = test system: LXFL 529 NSCLC
XF 498 CNS = test system: XF 498 CNS

Which TGI (786-0 renal) does the source give for N#CC(C#N)=C(N)/C(C#N)=C/c1ccc2[nH]ccc2c1 here?
The TGI was > 100 µM.

What about the TGI (A498 renal) of the same compound?
Its TGI is > 100 µM.

What about the TGI (A549 NSCLC) of the same compound?
Its TGI is > 100 µM.

And the TGI (ACHN renal)?
Its TGI is > 100 µM.

And the TGI (BT-549 breast)?
The TGI was > 100 µM.

What about the TGI (CAKI-1 renal) of the same compound?
Its TGI is > 100 µM.

What about the TGI (CCRF-CEM leukemia) of the same compound?
Its TGI is > 100 µM.

And the TGI (COLO 205 colon)?
Its TGI is > 100 µM.

And the TGI (DMS 114 small cell lung)?
The TGI was > 100 µM.

And the TGI (DMS 273 small cell lung)?
Its TGI is > 100 µM.

And the TGI (DU-145 prostate)?
The TGI was > 100 µM.

What about the TGI (EKVX NSCLC) of the same compound?
The TGI was > 100 µM.

And the TGI (HCC-2998 colon)?
The TGI was > 100 µM.

What about the TGI (HCT-116 colon) of the same compound?
The TGI was > 100 µM.

What about the TGI (HCT-15 colon) of the same compound?
The TGI was > 100 µM.

And the TGI (HL-60(TB) leukemia)?
The TGI was > 100 µM.

What about the TGI (HOP-18 NSCLC) of the same compound?
The TGI was > 100 µM.

And the TGI (HOP-62 NSCLC)?
The TGI was > 100 µM.

What about the TGI (HOP-92 NSCLC) of the same compound?
The TGI was > 100 µM.

What about the TGI (HS 578T breast) of the same compound?
The TGI was > 100 µM.

What about the TGI (HT29 colon) of the same compound?
The TGI was > 100 µM.

And the TGI (IGROV1 ovarian)?
Its TGI is > 100 µM.

What about the TGI (K-562 leukemia) of the same compound?
The TGI was > 100 µM.

What about the TGI (KM12 colon) of the same compound?
Its TGI is > 100 µM.

And the TGI (KM20L2 colon)?
The TGI was > 100 µM.

And the TGI (LOX IMVI melanoma)?
Its TGI is > 100 µM.

What about the TGI (M14 melanoma) of the same compound?
The TGI was > 100 µM.

What about the TGI (M19-MEL melanoma) of the same compound?
The TGI was > 100 µM.

And the TGI (MALME-3M melanoma)?
Its TGI is > 100 µM.

And the TGI (MCF7 breast)?
The TGI was > 100 µM.

And the TGI (MDA-MB-435)?
Its TGI is > 100 µM.

What about the TGI (MDA-N) of the same compound?
The TGI was > 100 µM.

And the TGI (MOLT-4 leukemia)?
Its TGI is > 100 µM.

And the TGI (NCI-H226 lung)?
Its TGI is > 100 µM.

What about the TGI (NCI-H23 lung) of the same compound?
The TGI was > 100 µM.

And the TGI (NCI-H460 lung)?
Its TGI is > 100 µM.

What about the TGI (NCI-H522 lung) of the same compound?
Its TGI is > 100 µM.

And the TGI (NCI/ADR-RES ovarian)?
The TGI was > 100 µM.

And the TGI (OVCAR-3 ovarian)?
The TGI was > 100 µM.

And the TGI (OVCAR-4 ovarian)?
The TGI was > 100 µM.

And the TGI (OVCAR-5 ovarian)?
Its TGI is > 100 µM.

What about the TGI (OVCAR-8 ovarian) of the same compound?
Its TGI is > 100 µM.

And the TGI (PC-3 prostate)?
The TGI was > 100 µM.

What about the TGI (RPMI-8226 leukemia) of the same compound?
Its TGI is > 100 µM.

What about the TGI (RXF 393 renal) of the same compound?
The TGI was > 100 µM.

And the TGI (SF-268 CNS)?
Its TGI is > 100 µM.

What about the TGI (SF-295 CNS) of the same compound?
The TGI was > 100 µM.

What about the TGI (SF-539 CNS) of the same compound?
The TGI was > 100 µM.

And the TGI (SK-MEL-2 melanoma)?
Its TGI is > 100 µM.

What about the TGI (SK-MEL-28 melanoma) of the same compound?
The TGI was > 100 µM.

What about the TGI (SK-MEL-5 melanoma) of the same compound?
The TGI was > 100 µM.

And the TGI (SK-OV-3 ovarian)?
The TGI was > 100 µM.

What about the TGI (SN12C renal) of the same compound?
The TGI was > 100 µM.

What about the TGI (SNB-19 CNS) of the same compound?
The TGI was > 100 µM.

What about the TGI (SNB-75 CNS) of the same compound?
Its TGI is > 100 µM.

And the TGI (SNB-78 CNS)?
Its TGI is > 100 µM.

What about the TGI (SR leukemia) of the same compound?
Its TGI is > 100 µM.

And the TGI (SW-620 colon)?
The TGI was > 100 µM.

And the TGI (T-47D breast)?
The TGI was > 100 µM.

And the TGI (TK-10 renal)?
The TGI was > 100 µM.

And the TGI (U251 CNS)?
Its TGI is > 100 µM.

And the TGI (UACC-257 melanoma)?
Its TGI is > 100 µM.

And the TGI (UACC-62 melanoma)?
The TGI was > 100 µM.

What about the TGI (UO-31 renal) of the same compound?
The TGI was > 100 µM.

For CCC1C(=O)OCc2c1cc1n(c2=O)C(CC)c2c-1nc1ccccc1c2Cl (centres undefined), which TGI (786-0 renal) is on record?
Its TGI is 33.9 µM.

What about the TGI (A498 renal) of the same compound?
Its TGI is 58.1 µM.

And the TGI (A549 NSCLC)?
Its TGI is > 100 µM.

What about the TGI (ACHN renal) of the same compound?
The TGI was > 100 µM.

And the TGI (CAKI-1 renal)?
The TGI was > 100 µM.

What about the TGI (CCRF-CEM leukemia) of the same compound?
Its TGI is > 100 µM.

And the TGI (COLO 205 colon)?
Its TGI is 37 µM.

And the TGI (DLD-1 colon)?
The TGI was > 100 µM.

And the TGI (DMS 273 small cell lung)?
Its TGI is > 100 µM.

And the TGI (EKVX NSCLC)?
Its TGI is 80.4 µM.

What about the TGI (HCT-15 colon) of the same compound?
The TGI was > 100 µM.

And the TGI (HL-60(TB) leukemia)?
The TGI was 57.3 µM.

What about the TGI (HOP-18 NSCLC) of the same compound?
Its TGI is 98.2 µM.

And the TGI (HOP-62 NSCLC)?
Its TGI is 87.1 µM.

What about the TGI (HOP-92 NSCLC) of the same compound?
Its TGI is > 100 µM.

What about the TGI (HT29 colon) of the same compound?
The TGI was 77.1 µM.

What about the TGI (IGROV1 ovarian) of the same compound?
The TGI was > 100 µM.

And the TGI (K-562 leukemia)?
Its TGI is > 100 µM.

What about the TGI (KM12 colon) of the same compound?
Its TGI is 96.6 µM.

What about the TGI (KM20L2 colon) of the same compound?
Its TGI is > 100 µM.

And the TGI (LOX IMVI melanoma)?
The TGI was > 100 µM.

What about the TGI (LXFL 529 NSCLC) of the same compound?
Its TGI is > 100 µM.

What about the TGI (M14 melanoma) of the same compound?
The TGI was > 100 µM.

What about the TGI (M19-MEL melanoma) of the same compound?
Its TGI is > 100 µM.

And the TGI (MALME-3M melanoma)?
Its TGI is > 100 µM.

What about the TGI (MOLT-4 leukemia) of the same compound?
The TGI was > 100 µM.

And the TGI (NCI-H226 lung)?
Its TGI is > 100 µM.

And the TGI (NCI-H23 lung)?
Its TGI is > 100 µM.

What about the TGI (NCI-H460 lung) of the same compound?
Its TGI is 55.4 µM.

What about the TGI (NCI-H522 lung) of the same compound?
The TGI was 35 µM.

What about the TGI (OVCAR-3 ovarian) of the same compound?
The TGI was 47.5 µM.

And the TGI (OVCAR-4 ovarian)?
Its TGI is > 100 µM.

What about the TGI (OVCAR-5 ovarian) of the same compound?
Its TGI is 54.6 µM.

And the TGI (RPMI-8226 leukemia)?
Its TGI is 50 µM.

What about the TGI (SF-268 CNS) of the same compound?
Its TGI is > 100 µM.

What about the TGI (SF-295 CNS) of the same compound?
The TGI was 66 µM.

What about the TGI (SF-539 CNS) of the same compound?
The TGI was 41.1 µM.

And the TGI (SK-MEL-2 melanoma)?
Its TGI is 65.4 µM.

And the TGI (SK-MEL-28 melanoma)?
The TGI was > 100 µM.

And the TGI (SK-MEL-5 melanoma)?
Its TGI is 40.5 µM.

What about the TGI (SK-OV-3 ovarian) of the same compound?
The TGI was 89 µM.

And the TGI (SNB-19 CNS)?
Its TGI is > 100 µM.

What about the TGI (SNB-78 CNS) of the same compound?
Its TGI is > 100 µM.

And the TGI (SW-620 colon)?
Its TGI is > 100 µM.

What about the TGI (TK-10 renal) of the same compound?
The TGI was > 100 µM.

What about the TGI (U251 CNS) of the same compound?
Its TGI is 49.4 µM.

What about the TGI (UACC-257 melanoma) of the same compound?
The TGI was 92.6 µM.

And the TGI (UACC-62 melanoma)?
Its TGI is > 100 µM.

What about the TGI (UO-31 renal) of the same compound?
Its TGI is > 100 µM.

And the TGI (XF 498 CNS)?
The TGI was 66.5 µM.
